# In patent US6626982B1, “Compound storage” (AstraZeneca AB, priority 1998, dated 2003):
# Several values for one entry are separate records, joined by “and”; a condition that tells them apart may be missing. Equal entries are not always repeated.
# Tests used:
# [1] = Adsorption onto Florisil and desorption into DMSO, quantified by RP-HPLC against a 10 mM control solution; type: physicochemical; details: for Conc. (mM) of Z-Trp-NH2 in DMSO after desorption from Florisil: nominal conc. 10 mM; for Conc. (mM) of Z-Trp-NH2 in DMSO after desorption from Florisil / Conc. (mM) of Compound in DMSO after desorption from Florisil: control 10.00
# Procedure: 1. 16.9 mg (50 μmol) of Z-Trp-NH2 in DMSO (0.5-5 ml) added to carrier (100 mg, 225 mg and 475 mg).
# 3. Evaporate off DMSO using centrifugal evaporator (70°/1 hr).
# 4. Mix resulting solid with spatula to ensure distribution as even as possible.
# 5. Weigh duplicate samples (to contain nominal 10 μmol Z-Trp-NH2) into vials.
# 6. Add DMSO to achieve 10^−2M conc. (nominal).
# 7. Dilute for HPLC analysis and compare with 10^−2M control solution of Z-Trp-NH2 similarly diluted.
# Z-Trp-NH2 (169 mg) was dissolved in DMSO (50 ml) to give a 10 mM solution. Aliquots of the solution (5 ml, 50 μmol) were added to a 100 mg and a 225 mg sample of Florisil™ in 2-dram glass vials. The samples were vortexed for approximately one minute and the DMSO removed in vacuo by evaporation at 70° for 1 h in a centrifugal evaporator (GeneVac Atlas HT4™). After evaporation the samples were removed and checked visually. In each case dry solids were obtained in the form of free flowing powders virtually indistinguishable from the original Florisil™. The nominal loadings of the adsorbed samples were calculated as 207 and 427 μmol/g of Z-Trp-NH2.
# Duplicate amounts (11.7 and 24.2 mg respectively) of the 427 and 207 μmol/g Z-Trp-NH2/Florisil™ samples were weighed into glass vials. DMSO (0.5 ml) was added to each vial and the vials were agitated gently for 15 min to give a nominal concentration of 10 mM of Z-Trp-NH2. Aliquots from each vial were diluted 100-fold with CH3CN and analysed by RP-HPLC monitoring by UV at […]. The peak areas obtained for the desorbed Z-Trp-NH2 DMSO solutions were compared with those obtained using a 10 mM control soln of Z-Trp-NH2 in DMSO similarly diluted.
# Using a procedure analogous to that used for Z-Trp-NH2 the following results were obtained (Table 4 and FIG. 3)
# [2] = Stability of Fmoc-Arg in DMSO and when adsorbed onto Florisil (HPLC); type: physicochemical
# [3] = ratio of compound to Florisil 200.0 μmol/g
# [4] = ratio of compound to Florisil 200.1 μmol/g
# [5] = ratio of compound to Florisil 397.5 μmol/g
# [6] = ratio of compound to Florisil 400.6 μmol/g
Conc. (mM) of Z-Trp-NH2 in DMSO after desorption from Florisil ([1]; ratio of Z-Trp-NH2 to Florisil 200 μmol/g),Conc. (mM) of Z-Trp-NH2 in DMSO after desorption from Florisil ([1]; ratio of Z-Trp-NH2 to Florisil 400 μmol/g),"Conc. (mM) of Compound in DMSO after desorption from Florisil [1, 3] [mM]","Conc. (mM) of Compound in DMSO after desorption from Florisil [1, 4] [mM]","Conc. (mM) of Compound in DMSO after desorption from Florisil [1, 5] [mM]","Conc. (mM) of Compound in DMSO after desorption from Florisil [1, 6] [mM]",Overall adsorption/desorption result with Florisil ([1]; comparable to those obtained with Z-Trp-NH2),"Decomposition in DMSO ([2]; 10^-2 M in DMSO, after 24 hours at ambient temperature)","Stability when adsorbed onto Florisil ([2]; adsorbed onto Florisil, some decomposition during adsorption/desorption when DMSO is present)","Detection by HPLC after centrifugal evaporation and dissolution into DMSO ([2]; control experiment, no Florisil added)",Compound
9.21 mM and 9.79 mM,10.26 mM and 10.09 mM,–,–,–,–,–,–,–,–,NC(=O)[C@H](Cc1c[nH]c2ccccc12)NC(=O)OCc1ccccc1 [Z-Trp-NH2]
–,–,10.04,10.31,11.93,10.51,–,–,–,–,"Cl.NC(=O)[C@@H](N)Cc1c[nH]c2ccccc12 [Trp-NH2.HCl, Tryptophan amide hydrochloride]"
–,–,7.70,7.65,5.11,5.53,apparent low release,decomposes completely,stable,not possible to detect any Fmoc-Arg,"N=C(N)NCCC[C@H](NC(=O)OCC1c2ccccc2-c2ccccc21)C(=O)O [Fmoc-Arg, Fmoc-Arginine]"

# Further lines, the compound ahead of its results:
Compound,Conc. (mM) of Z-Trp-NH2 in DMSO after desorption from Florisil ([1]; ratio of Z-Trp-NH2 to Florisil 200 μmol/g),Conc. (mM) of Z-Trp-NH2 in DMSO after desorption from Florisil ([1]; ratio of Z-Trp-NH2 to Florisil 400 μmol/g),"Conc. (mM) of Compound in DMSO after desorption from Florisil [1, 3] [mM]","Conc. (mM) of Compound in DMSO after desorption from Florisil [1, 4] [mM]","Conc. (mM) of Compound in DMSO after desorption from Florisil [1, 5] [mM]","Conc. (mM) of Compound in DMSO after desorption from Florisil [1, 6] [mM]",Overall adsorption/desorption result with Florisil ([1]; comparable to those obtained with Z-Trp-NH2),"Decomposition in DMSO ([2]; 10^-2 M in DMSO, after 24 hours at ambient temperature)","Stability when adsorbed onto Florisil ([2]; adsorbed onto Florisil, some decomposition during adsorption/desorption when DMSO is present)","Detection by HPLC after centrifugal evaporation and dissolution into DMSO ([2]; control experiment, no Florisil added)"
Boc-Naphthylalanine [Boc-Nal],–,–,9.10,9.06,9.64,9.64,–,–,–,–
Boc-Pyridylalanine [Boc-Pal],–,–,9.75,14.20,11.06,10.63,–,–,–,–
